Assay results as given in ChEMBL document CHEMBL2424559, “Design, synthesis and antitubercular evaluation of novel 2-substituted-3H-benzofuro benzofurans via palladium-copper catalysed Sonagashira coupling reaction” (Bioorg Med Chem Lett, 2013).
In brackets after ≈: the same amount, converted by molar mass.

Columns and labels:
[1] = tested on: Mycobacterium tuberculosis; test: microbe, parasite or virus in culture; settings: H37Rv ATCC 27294, 672 h
Description: Antimycobacterial activity against Mycobacterium tuberculosis H37Rv ATCC 27294 after 28 days by agar dilution method

[2] = Lipophilicity, log P of the compound; type: physicochemical; settings: octanol/water
[3] = Cytotoxicity against HEK293T cells at 50 ug/ml after 72 hrs by MTT assay; type: cell-based, HEK-293T; settings: human, read-out: INH
[4] = Therapeutic index, ratio of inhibition of HEK293T cells to MIC for Mycobacterium tuberculosis H37Rv ATCC 27294; type: cell-based, HEK-293T; settings: human, read-out: TI

Compound	MIC [1]	logP [2]	cytotoxicity at 72 h, 50 ug/ml [3]	selectivity ratio [4]
Cc1ccc(-c2cc3c(ccc4oc5ccccc5c43)o2)cc1	6.25 µg/mL (≈ 20.9 µM)	4.53	21.6%	–
COc1ccc(-c2cc3c(ccc4oc5ccccc5c43)o2)c(C)c1	3.12 µg/mL (≈ 9.5 µM)	4.4	32.1%	> 10
Cc1cccc(-c2cc3c(ccc4oc5ccccc5c43)o2)c1	12.5 µg/mL (≈ 41.9 µM)	4.53	56.8%	–
NNC(=O)c1ccncc1 [ISONIAZID]	0.1 µg/mL (≈ 0.729 µM)	–	–	–
CCCCCc1ccc(-c2cc3c(ccc4oc5ccccc5c43)o2)cc1	12.5 µg/mL (≈ 35.3 µM)	5.78	40.2%	–
Fc1ccc(-c2cc3c(ccc4oc5ccccc5c43)o2)c(F)c1	50 µg/mL (≈ 156 µM)	4.36	34.1%	–
CCCCCCc1cc2c(ccc3oc4ccccc4c32)o1	6.25 µg/mL (≈ 21.4 µM)	4.8	32.1%	–
FC(F)(F)Oc1ccc(-c2cc3c(ccc4oc5ccccc5c43)o2)cc1	50 µg/mL (≈ 136 µM)	5.57	72.1%	–
c1ccc(-c2cc3c(ccc4oc5ccccc5c43)o2)cc1	6.25 µg/mL (≈ 22 µM)	4.04	32.1%	–
c1ccc2c(c1)oc1ccc3oc(-c4ccsc4)cc3c12	50 µg/mL (≈ 172 µM)	3.97	23.1%	–
COc1ccc(-c2cc3c(ccc4oc5ccccc5c43)o2)cc1	50 µg/mL (≈ 159 µM)	3.92	13.8%	–
CC[C@@H](CO)NCCN[C@@H](CC)CO [ETHAMBUTOL]	3.13 µg/mL (≈ 15.3 µM)	–	–	–
NC(=O)c1cnccn1 [PYRAZINAMIDE]	50 µg/mL (≈ 406 µM)	–	–	–
